In assay [1] the test system is PC3 prostate tumor cells. Put plainly: MTS cell survival assay, PC3. It counts as cell-based. Particulars: doses 1-50 μM, time point not given. On the procedure:
(§1) Prostate tumor (PC3, DU145) and normal fibroblast controls (FS-4) cells were individually seeded in 96-well plates at a density of 4,000 cells per well. After 48 hours the cells are be treated with a dose of each compound (1-50 μM) or DMSO vehicle in fresh media. Cell viability of each cell line was then determined after 24, 48 and 72 hours of treatment with each compound by MTS assay (Roche). MTS assays provide a relative measure of cell viability based on the ability of mitochondria to metabolize a tetrazolium substrate to a colored formazan product. Viability is determined by colorimetric readout at 492 nm and determined relative to vehicle only treated cells. The IC50 for each drug, at each time point, will be determined by curve fitting.
For orientation: Tetrazolium dyes change colour on reduction, which living cells bring about.

In assay [2] the test system is intracellular FASN in PC3 cells. Put plainly: Inhibition of 14C-acetate incorporation in PC3 cells. The note with it: for % inhibition of 14C-acetate incorp. PC3 cells: two hours drug, then two hour labeling, concentration not given. It counts as cell-based. How it is done: Inhibition of ^14C-Acetate Incorporation in PC3 Cells.
This test ensures that the compound(s) target intracellular FASN correctly. The ability to inhibit FASN activity in cells will be performed by metabolic labeling of newly synthesized fatty acids with ^14C-acetate, as we have described previously. Briefly, PC-3 cells were seeded in 24-well plates at 50,000 cells per well. After 48 hours media was replaced with fresh media containing either drug or DMSO vehicle. As with the toxicity assay described below, the IC50 for the ability to inhibit FASN will also be determined. Cells will be incubated with a dose of each derivative compound that reflects the IC50's determined in the MTS assays. After two hours, 1 μCi of ^14C-acetate was added to each well for a two hour labeling period. The cells are then washed with PBS and collected by trypsinization. Lipids were finally isolated by Folch extraction and quantified by scintillation counting. The IC50 value for each compound against FASN in cells can then be determined.

The target in assay [3] is recombinant thioesterase TE1 (recombinant FASN-TE) (Homo sapiens, UniProt P49327). The assay is described as follows: Recombinant thioesterase inhibition assay (TE1). It counts as biochemical. The note with it: for inhibition at 10 µM: 10 μM compound, 30 min pre-incubation at 37° C., 4-MUH substrate; for IC50: recombinant thioesterase, approximate, read-out: approx, IC50 TE1. How it is done: (§2) Key to Table 2: Recombinant Thioesterase Inhibition Assay.
Sequence of recombinant thioesterase TE1 (recombinant FASN-TE) (P49327 2207-2511 limits assumed): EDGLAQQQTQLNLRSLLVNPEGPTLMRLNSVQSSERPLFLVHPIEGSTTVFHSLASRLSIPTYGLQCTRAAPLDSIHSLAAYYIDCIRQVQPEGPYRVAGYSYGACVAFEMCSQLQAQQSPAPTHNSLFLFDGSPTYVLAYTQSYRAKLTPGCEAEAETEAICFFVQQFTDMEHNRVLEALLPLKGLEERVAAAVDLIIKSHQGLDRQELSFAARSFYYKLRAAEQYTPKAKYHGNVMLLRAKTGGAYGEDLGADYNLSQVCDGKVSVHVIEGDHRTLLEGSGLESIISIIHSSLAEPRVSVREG
(§3) Briefly, recombinant FASN-TE (250 nM, 100 mM TRIS pH 7.4, 50 mM NaCl, 1 mM EDTA) was pre-incubated with inhibitors for 30 min at 37° C. prior to the addition of fluorogenic substrate, 4-methylumbelliferyl heptanoate (4-MUH, 120 μM) (56); the reaction was then monitored by following the increase in fluorescence using a Tecan Safire^2 96-well plate reader using 350/450 excitation/emission wavelengths. The IC50 values are then determined for each compound in the series.

The target of assay [4] is recombinant thioesterase TE2 (recombinant FASN-TE) (Homo sapiens, UniProt P49327). Put plainly: Recombinant thioesterase inhibition assay (TE2). The format is biochemical. The note with it: for inhibition at 10 µM: 10 μM compound, 30 min pre-incubation at 37° C., 4-MUH substrate; for IC50: recombinant thioesterase, approximate, read-out: approx, IC50 TE2. How it is done: as §2, §3
Sequence of recombinant thioesterase TE2 (recombinant FASN-TE) (P49327 2200-2511): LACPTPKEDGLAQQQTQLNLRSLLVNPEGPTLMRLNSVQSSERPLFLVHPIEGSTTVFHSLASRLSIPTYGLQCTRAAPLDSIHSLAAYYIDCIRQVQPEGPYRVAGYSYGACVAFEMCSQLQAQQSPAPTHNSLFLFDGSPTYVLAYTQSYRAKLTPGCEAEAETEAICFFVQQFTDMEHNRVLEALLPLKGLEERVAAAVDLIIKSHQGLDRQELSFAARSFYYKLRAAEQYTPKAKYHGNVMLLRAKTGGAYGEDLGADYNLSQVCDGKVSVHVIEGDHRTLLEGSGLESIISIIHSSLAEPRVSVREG

Assay [5] has as its system DU-145 prostate tumor cells. The assay is described as follows: MTS cell survival assay, DU-145. The note with it: Homo sapiens, doses 1-50 μM, time point not given. The format is cell-based. On the procedure: as §1
In assay [6] the test system is FS-4 normal fibroblast cells. The assay is described as follows: MTS cell survival assay, FS-4. The format is cell-based. Particulars: FS-4 normal fibroblasts, doses 1-50 μM, time point not given. On the procedure:
as §1

One may read the IC50 as the concentration needed to halve the response being measured. One may read the inhibition as how much of the control response was suppressed. As for `COc1cc(O)c2onc(-c3ccccc3)c2c1O` [TPI-00401-00-A], the IC50 is 33 µM in assay [1] and > 50 µM in assay [5]. For the same compound, the “% inhibition of 14C-acetate incorp. PC3 cells” value (from here on “% inhibition”) in assay [2] stood at 29.1%. Moreover, the figures for the inhibition at 10 µM in assay [3] and in assay [4] were 40% and 55.9%, respectively.
Turning to `C=C1C=C(SCC)C(=O)c2c(C(=O)OCC)n[nH]c21` [TPI-00402-00-A], the IC50 in assay [1] was 18.8 µM; in assay [6], 20.9 µM; in assay [3] it was ~2.35 µM; in assay [4], ~0.56 µM; in assay [5], 40 µM. Moreover, the “% inhibition” value in assay [2] worked out at 90.4%. For the same compound, the inhibition at 10 µM was 66.6% in assay [3] and 95.7% in assay [4].
`C=C1C=C(S)C(=O)c2c(C(=O)OCC)n[nH]c21` [TPI-00403-00-A]: the IC50 in assay [1] was 3.25 µM; in assay [2] (Homo sapiens, PC-3, read-out: IC50 of inhibition of 14C-acetate incorp. PC3 cells), 6.75 µM; in assay [6], 9.15 µM; in assay [3] it was ~3.9 µM; in assay [4], ~2.42 µM; in assay [5], 15.6 µM. Also, the “% inhibition” value in assay [2] is given as 97%. For the same compound, the inhibition at 10 µM was determined as 69.3% in assay [3] and 79.3% in assay [4].
For the compound `CCOC(=O)c1n[nH]c2c1C(=O)C(SCC(=O)OC)=CC2=O` [TPI-00405-00-A], in assay [3], the inhibition at 10 µM was determined as 69.5% and the IC50 is ~2.78 µM. Also, in assay [4], the inhibition at 10 µM amounted to 96.8% and the IC50 is ~0.41 µM.
As for `CCOC(=O)c1n[nH]c2c1C(=O)C(SCc1cccc(F)c1)=CC2=O` [TPI-00406-00-A], the “% inhibition” value in assay [2] worked out at 37.7%. Besides, the inhibition at 10 µM in assay [3] was found to be 73.6%; in assay [4] it was 96%.
For `CCOC(=O)c1n[nH]c2c1C(=O)C(SCc1ccc(F)cc1F)=CC2=O` [TPI-00407-00-A], the “% inhibition” value in assay [2] was determined as 37.8%. The inhibition at 10 µM in assay [3] stood at 66%; in assay [4], 94.9%.
As to `CCOC(=O)c1n[nH]c2c1C(=O)C(SCc1ccc(C(F)(F)F)cc1)=CC2=O` [TPI-00408-00-A], the IC50 in assay [1] is 18.5 µM; in assay [6], 22.5 µM. In addition, the “% inhibition” value in assay [2] amounted to 89.9%. Further, the inhibition at 10 µM was determined as 67.9% in assay [3] and 96.2% in assay [4].
Regarding `CCOC(=O)c1n[nH]c2c1C(=O)C(SCC(=O)NC)=CC2=O` [TPI-00409-00-A], the “% inhibition” value in assay [2] amounted to 0%. Further, the inhibition at 10 µM in assay [3] stood at 53.5%; in assay [4] it was 92.2%.
With `CCOC(=O)c1n[nH]c2c1C(=O)C(SCCCCO)=CC2=O` [TPI-00410-00-A], the “% inhibition” value in assay [2] turned out to be 1.85%. Moreover, the inhibition at 10 µM in assay [3] was 59.6%; in assay [4], 91.7%.
For the compound `CCOC(=O)c1n[nH]c2c1C(=O)C(Sc1ccc(-c3ccccc3)cc1)=CC2=O` [TPI-00411-00-A], in assay [2], the “% inhibition” value is 0.75%. For the same compound, the inhibition at 10 µM in assay [3] is 70.5%; in assay [4], 97.4%.
For `CCOC(=O)c1n[nH]c2c1C(=O)C(Sc1cccc(OC)c1)=CC2=O` [TPI-00412-00-A] the same measures were 9.95%, 81.6% and 98%.
With `CCOC(=O)c1n[nH]c2c1C(=O)C(SCCOCCOC)=CC2=O` [TPI-00413-00-A], in assay [2], the “% inhibition” value came out at 20.2%. Further, the inhibition at 10 µM is 50.2% in assay [3] and 94.8% in assay [4].
For the compound `CCOC(=O)c1n[nH]c2c1C(=O)C(SC1CCCC1)=CC2=O` [TPI-00414-00-A], the half-maximal inhibitory concentration (IC50) in assay [1] is 25 µM; in assay [6], 33 µM. The “% inhibition” value in assay [2] came out at 92.4%. The inhibition at 10 µM in assay [3] came to 52.2%; in assay [4], 86.4%.
In the case of `CCOC(=O)c1n[nH]c2c1C(=O)C(Sc1ccccc1)=CC2=O` [TPI-00415-00-A], the “% inhibition” value in assay [2] turned out to be 7.05%. Besides, the inhibition at 10 µM came to 79.7% in assay [3] and 97.5% in assay [4].
With `CCOC(=O)c1n[nH]c2c1C(=O)C(SCc1ccc(OC)cc1)=CC2=O` [TPI-00416-00-A], the IC50 turned out to be 25.8 µM in assay [1] and 33 µM in assay [6]. Also, in assay [2], the “% inhibition” value was found to be 89.9%. Also, the figures for the inhibition at 10 µM in assay [3] and in assay [4] were 64.3% and 96.5%, respectively.
With `CCOC(=O)c1n[nH]c2c1C(=O)C(SCc1ccc(Cl)cc1)=CC2=O` [TPI-00417-00-A], the IC50 in assay [1] is 13.8 µM; in assay [6], 21 µM. Besides, the “% inhibition” value in assay [2] amounted to 96.1%. Further, the inhibition at 10 µM in assay [3] was determined as 74.8%; in assay [4], 97.8%.
Take `CCOC(=O)c1n[nH]c2c1C(=O)C(SCc1ccco1)=CC2=O` [TPI-00418-00-A]: the 50% inhibitory concentration (IC50) was 31.7 µM in assay [1] and 37 µM in assay [6]. In addition, the “% inhibition” value in assay [2] came out at 92.2%. Moreover, the inhibition at 10 µM in assay [3] came to 65.5%; in assay [4], 95.9%.
With `CCCCCCCSC1=CC(=O)c2[nH]nc(C(=O)OCC)c2C1=O` [TPI-00419-00-A], the figures for the IC50 in assay [1] and in assay [6] were 32 µM and 50 µM, respectively. The “% inhibition” value in assay [2] is recorded as 67.95%. The inhibition at 10 µM in assay [3] stood at 66.2%; in assay [4], 95.8%.
For `CCOC(=O)c1n[nH]c2c1C(=O)C(SCCC(=O)OC)=CC2=O` [TPI-00420-00-A] the same measures were 37.5 µM, 42 µM, 68.5%, 62% and 95.3%.
Take `CNC(=O)CSC1=CC(=O)c2[nH]ncc2C1=O` [TPI-00421-00-A]: the IC50 in assay [1] is 17.9 µM; in assay [6], 41 µM; in assay [3], ~1.02 µM. Besides, the “% inhibition” value in assay [2] is on record as 70%. The inhibition at 10 µM in assay [3] and in assay [4] was 100% throughout.
Regarding `CCOC(=O)c1n[nH]c2c1C(=O)C(SCC(=O)Nc1ccccc1)=CC2=O` [TPI-00422-00-A], the IC50 in assay [1] was 48 µM; in assay [6], > 50 µM. Moreover, the “% inhibition” value in assay [2] was 0%. In addition, the figures for the inhibition at 10 µM in assay [3] and in assay [4] were 22.9% and 86.8%, respectively.
As to `O=C(Nc1ccccc1)c1n[nH]c2c1C(=O)C(SCCCCO)=CC2=O` [TPI-00423-00-A], the IC50 in assay [1] came to 20 µM; in assay [6], 25 µM. Also, the “% inhibition” value in assay [2] was 87.25%. The inhibition at 10 µM in assay [3] came to 79.8%; in assay [4] it was 98%.
With `O=C(Nc1ccccc1)c1n[nH]c2c1C(=O)C(SCc1ccc(C(F)(F)F)cc1)=CC2=O` [TPI-00424-00-A], the values for the IC50 in assay [1] and in assay [6] were 27 µM and 50 µM, respectively. For the same compound, the “% inhibition” value in assay [2] is 0%. The inhibition at 10 µM in assay [3] worked out at 92.6%; in assay [4], 100%.

These data come from patent publication US10071076B2, “Methods of treating cancer and other disorders” (Wake Forest University Health Sciences, priority 2010, dated 2018).
